What was measured:
three types of cells = details: cited from earlier work
[1] = statement in abstract; no data in this paper; cited from earlier work
HeLa cells = details: 100 nM nocodazole 16 h, 10 μM, 40 min; in contrast to interphase cells

Substance: polyarginine
- reduction of cell-associated fluorescence by high potassium buffer (three types of cells): more than 90%

Substance: Acetyl-dC-dK-dR-dR-dR-dQ-dR-dR-dK-dK-dR-CONH2 [R.I.-CKTat9]
- proteolytic stability [1]: proteolytically stable

Substance: 5(6)-Carboxyfluorescein-R.I.-CKTat9 [Flu-R.I.-CKTat9]
- cell surface-bound amount at 0 °C in KPBS versus PBS (HeLa cell surface): no difference

Substance: rhodamine-R.I.-CKTat9 [Rho-R.I.-CKTat9]
- uptake by HeLa cells arrested in M phase (microscopy) (HeLa cells): did not take up

Reference: PMC2859821 (Molecular pharmaceutics, 2009)
